# Where no end group is shown, it is not given here.
# Columns and labels:
# [1] = molecular target: T1, interaction between HPV16 E1 and E2 (Human papillomavirus type 16, UniProt P03114); assay: In vitro HPV E1-E2 binding assay (co-immunoprecipitation / Western blot), HPV16 E1 and HPV16 E2; conditions: increasing peptide concentrations, FIG. 6A
# T1 construct: made in house; host or cells: Hi-Five insect cells infected with recombinant baculovirus (pVL1392); nuclear extracts
# T1 sequence (P03114 whole entry, looked up): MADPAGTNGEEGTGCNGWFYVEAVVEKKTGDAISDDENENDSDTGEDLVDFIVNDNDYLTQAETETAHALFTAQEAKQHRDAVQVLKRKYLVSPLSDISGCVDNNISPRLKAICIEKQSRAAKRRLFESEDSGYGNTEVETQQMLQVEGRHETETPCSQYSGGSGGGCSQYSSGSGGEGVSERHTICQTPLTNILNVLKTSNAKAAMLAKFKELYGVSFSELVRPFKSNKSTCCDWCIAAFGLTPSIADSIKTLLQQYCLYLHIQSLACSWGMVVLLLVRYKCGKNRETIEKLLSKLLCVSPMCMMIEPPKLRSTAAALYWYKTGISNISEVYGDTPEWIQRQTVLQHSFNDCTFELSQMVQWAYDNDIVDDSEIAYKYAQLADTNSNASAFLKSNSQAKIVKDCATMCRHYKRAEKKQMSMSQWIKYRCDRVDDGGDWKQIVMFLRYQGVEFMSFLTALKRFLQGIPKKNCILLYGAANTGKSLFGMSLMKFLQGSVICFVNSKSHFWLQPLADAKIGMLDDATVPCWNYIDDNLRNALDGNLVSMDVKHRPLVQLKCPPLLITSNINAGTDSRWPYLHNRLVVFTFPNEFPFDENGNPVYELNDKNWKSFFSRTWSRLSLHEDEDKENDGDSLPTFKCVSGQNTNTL
# Method: (§1) In vitro HPV E1-E2 binding assay. 300-500 ng protein from HPV16 or HPV11 EE-E1 expressing recombinant baculovirus infected cell nuclear extracts and 80-120 ng from HPV E2 baculovirus infected cell nuclear extracts were incubated in 500 μl NET-gel buffer (50 mM Tris-HCl pH7.5, 150 mM NaCl, 0.1% NP-40, 1 mM EDTA, 0.25% gelatin) at 4° C. for one hour. 1-2 μg anti-EE monoclonal antibody was added and incubated with shaking at 4° C. for one hour. Immune complexes were precipitated with protein-G agarose beads and washed twice for 30 minutes with ice cold NET-gel buffer. Precipitated proteins were detected by Western blot using appropriate primary antibodies and anti-rabbit IgG HRP or anti-mouse IgG HRP (Amersham). Membranes were blocked for one hour in TNET (10 mM Tris 7.5, 2.5 mM EDTA, 50 mM NaCl, 0.1% Tween-20) containing 4% (w/v) dry milk. Washes and antibody reactions were carried out in TNET, and proteins were visualized by chemiluminescence (Reneaissance ECL, NEN) and autoradiography. Bands were quantitated using the NIH image program.
# (§2) Therefore, we reasoned that a peptide encompassing this domain of HPV16 E2 might inhibit interaction between HPV16 E1 and E2, thereby inhibiting HPV16 DNA replication (FIG. 5). In order to test this possibility, HPV16 E2 and epitope tagged full length HPV16 E1 (EE16-E1) proteins were expressed separately using baculovirus vectors. EE-E1 and associated E2 proteins were immunoprecipitated using an anti-EE epitope monoclonal antibody. Precipitated E2 was detected by Western blot using polyclonal antiserum raised to the DNA binding domain of HPV16 E2 (35). As shown in lane 2 of FIG. 6A, E2 co-immunoprecipitated with EE16-E1, but was not precipitated by the EE epitope antibody in the absence of EE16-E1 (lane 1). Peptides encompassing HPV16 E2 amino acids 29-51 (E2N-WP23) or residues 33-47 (E2N-WP15) of HPV16 E2 were then tested for inhibition of E1-E2 interaction. These peptide sequences were derived from the sequence of HPV16 E2, and were based on an alignment of amino terminal residues that are conserved among the papillomavirus E2 proteins (FIG. 5). […] Both the HPV16 E2 protein itself and the E2 derived peptides act specifically in these assays, since the E39A replication defective HPV16 E2 mutant bound only slightly to EE16-E1 (lanes 14). […] These peptides are named E2N-MP23 and E2N-MP15, respectively (see FIG. 5). […] We have previously shown that a domain spanning amino acids 421-647 of the HPV16 E1 carboxy terminus is necessary and sufficient for E2 interaction (45).
# [2] = tested on: in vitro HPV16 DNA replication; assay: In vitro replication of HPV16 DNA (293 cell extract, EE-E1, HPV16 E2); type: biochemical; conditions: 40 ng EE-E1 and 6 ng HPV16 E2, FIG. 7
# Method: In vitro replication reactions. In vitro replication reactions were essentially as described by Kuo et al. (18) in 25 μl reactions at 37° C. for indicated times. Standard reactions were for 2 hours, and were terminated by addition of 200 μl stop solution (20 mM Tris-HCl pH 7.5, 10 mM EDTA, 0.1% SDS, and 20 μg/ml RNase A). After incubation at 37° C. for 15 minutes, proteinase K was added (200 μg/ml) and incubation was continued 30 minutes. Samples were extracted with 250 μl phenol/chloroform/isoamyl alcohol (25:24:1), ethanol precipitated, washed with 70% ethanol, dried, resuspended in 20-30μl TE, and analyzed on a 0.8% agarose gel (TAE). The agarose gel was dried onto Hybond N+ membrane (Amersham), and replicated DNA was visualized by autoradiography. Bands were quantitated by Phosphorimager analysis. Replication templates were pKS7838-7905 (nt7838-7905/1-130) containing the HPV16 replication origin, and pUC7874-99 containing the HPV11 origin of replication (nt7874-7933/1-99). pUC7874-99 was a generously provided by Dr. Louise Chow.
# We sought to establish a system for the study of HPV16 DNA replication in vitro, and to determine whether specific interaction between HPV16 E1 and E2 was required for HPV16 DNA replication in this system. […] As has been documented for other papillomavirus E1 proteins, some replication was observed using relatively large amounts of E1 in the absence of E2 (lanes 2 through 7) (6, 16, 22, 33, 40, 48). […] Replication in this assay is ori-dependent, since the small amount of replication of the pKS plasmid lacking the HPV16 origin detected at high concentrations of EE-E1 (FIG. 3B, lanes 1-6) was not stimulated by E2 (FIG. 1B, lanes 7-12).
# Since the E2N-WP23 and E2N-WP 15 peptides could inhibit interaction between […] E1 and E2, their ability to inhibit in vitro HPV16 DNA replication was also tested (FIGS. 7A and 7B).
# HPV-16 E1-E2 interaction = molecular target: T2, HPV-16 E1-E2 interaction (Human papillomavirus type 16, UniProt P03114); assay: In vitro HPV E1-E2 competition binding assay (HPV-16 EE-E1C and HPV-16 E2); conditions: 10 μM, 20 μM, and 40 μM peptide, FIG. 14
# T2 construct: The carboxy terminus of HPV16-E1, from amino acid 424 to 649, is the minimal domain; made in house; host or cells: E2: nuclear extract of baculovirus-infected Hi-Five cells
# T2 sequence (P03114 whole entry, looked up): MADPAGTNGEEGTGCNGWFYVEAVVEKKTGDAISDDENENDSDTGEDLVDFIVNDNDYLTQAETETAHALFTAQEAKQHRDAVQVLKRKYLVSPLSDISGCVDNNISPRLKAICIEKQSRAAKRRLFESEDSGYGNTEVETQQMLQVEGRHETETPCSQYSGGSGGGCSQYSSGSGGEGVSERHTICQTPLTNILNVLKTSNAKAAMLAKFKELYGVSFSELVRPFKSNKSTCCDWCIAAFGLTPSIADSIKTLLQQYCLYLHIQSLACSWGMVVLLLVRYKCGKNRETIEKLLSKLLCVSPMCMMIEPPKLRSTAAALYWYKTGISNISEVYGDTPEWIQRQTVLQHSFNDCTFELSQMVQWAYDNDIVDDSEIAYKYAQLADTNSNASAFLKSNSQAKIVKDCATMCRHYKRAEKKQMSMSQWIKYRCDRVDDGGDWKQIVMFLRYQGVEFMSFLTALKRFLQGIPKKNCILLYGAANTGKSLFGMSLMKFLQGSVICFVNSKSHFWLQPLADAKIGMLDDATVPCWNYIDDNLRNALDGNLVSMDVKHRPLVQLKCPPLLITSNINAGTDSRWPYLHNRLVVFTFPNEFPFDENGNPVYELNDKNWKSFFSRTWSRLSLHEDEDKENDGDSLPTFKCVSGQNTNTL
# Method: Use of EE-EIC. The carboxy terminus of HPV16-E1, from amino acid 424 to 649, is the minimal domain necessary for interaction with E2 (Yasugi et al. 1997). An epitope tagged form of this domain (EE-EIC) was used in the E1-E2 interaction assays presented here.
# In vitro HPV EI-E2 competition binding assay. HPV-16 EE-EIC (240 ng) in 500 1 NET gel buffer (50 mM Tris-HCI [pH 7.5 ], 150 mM NaCl, 0.1% NP-40, 1 mM EDTA, 0.25% gelatin) were pre-incubated with 0 μM, 10 μM, 20 μM, or 40 μM peptide for 10 minutes on ice. The final concentration of DMSO, the peptide solvent, was kept constant in all samples. Nuclear extract containing HPV-16 E2 was then added, and the mixture was incubated with shaking at 4° C. for 1 hour. Anti-EE monoclonal antibody (1 mg/ml) (BAbCo) was added, and the mixture was incubated with shaking for 30 minutes. Immune complexes were precipitated with protein G-agarose beads for an additional 30 minutes at 4° C. The beads were washed with 500 l ice-cold NET-gel buffer three times.
# [3] = molecular target: T3, interaction between HPV16 E1 and E2 (Human papillomavirus type 16, UniProt P03114); assay: In vitro HPV E1-E2 binding assay (co-immunoprecipitation / Western blot), HPV16 E1 and HPV16 E2
# T3 construct: made in house; host or cells: Hi-Five insect cells infected with recombinant baculovirus (pVL1392); nuclear extracts
# Method: as §1, §2
Substance,inhibition of HPV16 E1-E2 interaction [1],inhibition of in vitro HPV16 DNA replication [2],inhibition of HPV-16 E1-E2 interaction (E1-E2 complex formation) (HPV-16 E1-E2 interaction),"inhibition of HPV16 E1-E2 interaction ([3]; increasing peptide concentrations, FIG. 6A)",mode of inhibition of E1-E2 interaction ([3]; inhibition plotted as a function of substrate concentration (data not shown))
"E2N-MP23: 23-mer peptide of HPV16 E2 aa 29-51 containing alanine at the position analogous to E39 (HIDYWKHMRLACAIYYKAREMGF; UniProt P03120 29-51, looked up, variant E39A)",did not inhibit E1-E2 interaction at concentrations at which the wild type peptide could do so,wild type peptides inhibited replication much more effectively than the respective E39A substituted analog,–,–,–
ERQIKIWFQNRRMKWKKGGWKHMRLECAIYYKAR [Ant-WP],–,–,comparable to that of wild-type peptide,–,–
GRKKRRQRRRPPQCGGWKHMRLECAIYYKAR (cysteine pairing not given here) [Tat-WP],–,–,not inhibited,–,–
HIDYWKHMRLECAIYYKAREMGF [E2N-WP23],–,could effectively inhibit in vitro replication,–,inhibitory effects,competitive inhibition
